Patent publication US11584747B2, “Substituted pyridopyrimidinonyl compounds useful as T cell activators” (BRISTOL-MYERS SQUIBB COMPANY, priority 2019, dated 2023)
Like-named read-outs stand apart in the source and are kept apart here.

Columns and labels:
[1] = system: whole blood (pERK); assay: pERK Whole Blood; assay type: cell-based
[2] = molecular target: human DGKζ (Homo sapiens (Human), UniProt Q13574); assay: DGKζ LIPGLO assay (extruded liposome substrate, ADP-Glo luminescence); assay type: biochemical
[3] = molecular target: T1, human DGKα (Homo sapiens (Human), UniProt P23743); assay: DGKα ADPGLO assay (detergent/lipid micelle substrate); assay type: biochemical
Method: DGK Alpha ADPGLO (Truncated) IC50 (uM)
The detergent/lipid micelle was prepared by combining 15 g phosphatidylserine (Avanti 840035P) and 1 g diacylglycerol (8008110) and dissolving into 150 mL chloroform in a 2 L round bottom flask. Chloroform was removed under high vacuum by rotary evaporation. […] The lipid/detergent solution was split into 5 mL aliquots and stored at −80° C.

[4] = system: human venous whole blood (IFN-γ); assay: Human whole blood IFN-γ assay; assay type: cell-based
Method: Human venous whole blood (22.5 μL per well), obtained from healthy donors, was pre-treated with compounds for one hour at 37° C. in a humidified 95% air/5% CO2 incubator. The blood was stimulated with 2.5 μL anti-human CD3 and anti-CD28 mAb at a final concentration of 1 μg/mL each for 24 hours at 37° C. IFN-γ in the supernatants was measured using AlphLISA kit (Cat #AL217).

[5] = molecular target: T1, human DGKα; assay: DGKα LIPGLO assay (extruded liposome substrate, ADP-Glo luminescence); assay type: biochemical; settings: liposome assay; read-out: DGK alpha LIPGLO IC50
[6] = system: whole blood (pERK); assay: pERK Whole Blood assay (Table A; no whole-blood pERK method described); assay type: cell-based; settings: normalized
[7] = liposome (LIPGLO) assay, read-out: DGK zeta (liposome assay) IC50
[8] = ADPGLO assay, read-out: DGK alpha ADPGLO IC50
[9] = liposome assay, read-out: DGK zeta LIPGLO IC50
[10] = whole blood, normalized to 3 μM reference compound as 100% activation, read-out: IFN-γ Whole Blood Normalized EC50
[11] = truncated DGK alpha, read-out: DGK alpha ADPGLO (Truncated) IC50

human DGKζ, sequence (Q13574 other isoform, or with tags, fused parts or gaps): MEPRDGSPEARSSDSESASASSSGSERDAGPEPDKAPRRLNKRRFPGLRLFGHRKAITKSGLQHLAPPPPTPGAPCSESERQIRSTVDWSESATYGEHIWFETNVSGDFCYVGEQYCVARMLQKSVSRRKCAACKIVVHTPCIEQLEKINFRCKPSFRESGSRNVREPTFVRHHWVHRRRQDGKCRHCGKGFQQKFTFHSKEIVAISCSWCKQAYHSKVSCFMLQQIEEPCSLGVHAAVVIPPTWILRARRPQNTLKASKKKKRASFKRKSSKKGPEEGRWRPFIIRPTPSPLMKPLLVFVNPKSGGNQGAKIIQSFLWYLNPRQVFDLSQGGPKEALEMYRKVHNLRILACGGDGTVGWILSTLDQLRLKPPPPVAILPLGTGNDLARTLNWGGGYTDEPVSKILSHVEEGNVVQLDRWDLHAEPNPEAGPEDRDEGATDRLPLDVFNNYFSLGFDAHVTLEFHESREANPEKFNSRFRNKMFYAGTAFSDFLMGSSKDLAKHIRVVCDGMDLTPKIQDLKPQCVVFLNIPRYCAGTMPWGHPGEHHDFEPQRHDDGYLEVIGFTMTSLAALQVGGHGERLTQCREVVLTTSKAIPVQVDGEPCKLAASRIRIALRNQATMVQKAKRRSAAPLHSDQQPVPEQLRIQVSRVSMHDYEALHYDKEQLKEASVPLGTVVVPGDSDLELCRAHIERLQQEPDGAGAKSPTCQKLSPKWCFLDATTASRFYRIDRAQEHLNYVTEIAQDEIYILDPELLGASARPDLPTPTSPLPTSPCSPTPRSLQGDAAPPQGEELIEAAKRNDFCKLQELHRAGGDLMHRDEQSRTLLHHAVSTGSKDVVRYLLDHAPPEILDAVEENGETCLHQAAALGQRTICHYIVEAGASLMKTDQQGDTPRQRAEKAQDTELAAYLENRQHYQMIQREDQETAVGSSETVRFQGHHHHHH
T1 sequence (P23743 whole entry, looked up, the tested form may be a part): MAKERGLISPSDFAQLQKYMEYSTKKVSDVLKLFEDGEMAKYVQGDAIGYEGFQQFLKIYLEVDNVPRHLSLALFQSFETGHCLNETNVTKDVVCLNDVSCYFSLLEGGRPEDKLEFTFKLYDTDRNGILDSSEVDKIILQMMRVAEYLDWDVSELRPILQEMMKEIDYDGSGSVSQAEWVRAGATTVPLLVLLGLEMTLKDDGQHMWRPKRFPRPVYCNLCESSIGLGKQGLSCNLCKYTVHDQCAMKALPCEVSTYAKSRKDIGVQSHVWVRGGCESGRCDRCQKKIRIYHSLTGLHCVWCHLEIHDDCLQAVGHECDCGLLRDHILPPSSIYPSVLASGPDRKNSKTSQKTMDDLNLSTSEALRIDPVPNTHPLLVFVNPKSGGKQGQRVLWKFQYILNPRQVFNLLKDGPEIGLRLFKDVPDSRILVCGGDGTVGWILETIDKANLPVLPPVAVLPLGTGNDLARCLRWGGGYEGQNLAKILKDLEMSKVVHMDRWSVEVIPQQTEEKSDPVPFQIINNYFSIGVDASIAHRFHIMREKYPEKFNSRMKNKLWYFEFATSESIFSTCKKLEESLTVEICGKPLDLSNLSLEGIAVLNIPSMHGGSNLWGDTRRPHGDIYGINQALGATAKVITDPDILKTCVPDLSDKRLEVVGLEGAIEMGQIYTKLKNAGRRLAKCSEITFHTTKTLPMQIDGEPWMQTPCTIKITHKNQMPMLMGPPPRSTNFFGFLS

Row | Structure (SMILES) | EC50 [1] [µM] | IC50 [2, 7] [nM] | IC50 [3, 8] [nM] | also measured
1 | CCOc1ccc(C(CC)N2C[C@H](C)N(c3nc(=O)n(C)c4ccc(C#N)nc34)C[C@H]2CC)cc1 (stereo partly drawn) [Example 306, 4-((2S,5R)-4-(1-(4-ethoxyphenyl)propyl)-5-ethyl-2-methylpiperazin-1-yl)-1-methyl-2-oxo-1,2-dihydropyrido[3,2-d]pyrimidine-6-carbonitrile] | 0.23 | 28 | 11 | 
2 | CCC(c1ccc(C(C)(C)C#N)cc1)N1C[C@H](C)N(c2nc(=O)n(C)c3ccc(C#N)nc23)C[C@H]1CC (stereo partly drawn) [Example 317, 4-((2S,5R)-4-(1-(4-(2-cyanopropan-2-yl)phenyl)propyl)-5-ethyl-2-methylpiperazin-1-yl)-1-methyl-2-oxo-1,2-dihydropyrido[3,2-d]pyrimidine-6-carbonitrile] | 0.18 | 26 | 17 | 
3 | CC[C@@H]1CN(c2nc(=O)n(C)c3ccc(C#N)nc23)[C@@H](C)CN1C(C)c1ccc(C2(C#N)CC2)cc1 (stereo partly drawn) [Example 326, 4-((2S,5R)-4-(1-(4-(1-cyanocyclopropyl)phenyl)ethyl)-5-ethyl-2-methylpiperazin-1-yl)-1-methyl-2-oxo-1,2-dihydropyrido[3,2-d]pyrimidine-6-carbonitrile] | 3.48 |  |  | 
4 | CC[C@@H]1CN(c2nc(=O)n(C)c3ccc(C#N)nc23)[C@@H](C)CN1C(C)c1ccc(C2(C#N)CC2)cc1 (stereo partly drawn) [Example 325, 4-((2S,5R)-4-(1-(4-(1-cyanocyclopropyl)phenyl)ethyl)-5-ethyl-2-methylpiperazin-1-yl)-1-methyl-2-oxo-1,2-dihydropyrido[3,2-d]pyrimidine-6-carbonitrile] | 0.07 | 69 | 800 | 
5 | CCC(c1ccc(OCCC(F)(F)F)cc1)N1C[C@H](C)N(c2nc(=O)n(C)c3ccc(C#N)nc23)C[C@H]1CC (single isomer, unassigned) [Example 336] | 20 | 1100 | 480 | 
6 | CC[C@@H]1CN(c2nc(=O)n(C)c3ccc(C#N)nc23)[C@@H](C)CN1C(c1ccc(F)cc1)c1nc(C2CC2)no1 (stereo partly drawn) [Example 112, 4-((2S,5R)-4-((3-cyclopropyl-1,2,4-oxadiazol-5-yl)(4-fluorophenyl)methyl)-5-ethyl-2-methylpiperazin-1-yl)-1-methyl-2-oxo-1,2-dihydropyrido[3,2-d]pyrimidine-6-carbonitrile] |  |  |  | IC50 [5]: 43 nM; IC50 [6]: 15 nM; IC50 [2, 9]: 22 nM; EC50 [4, 10]: 11 nM; IC50 [3, 11]: 11 nM
7 | CC[C@H]1CN(C(C)c2ccc(C(F)(F)F)cc2F)[C@H](CC)CN1c1nc(=O)n(C)c2ccc(C#N)nc12 (single isomer, unassigned) [Example 26] |  |  |  | IC50 [5]: 81 nM; IC50 [6]: 240 nM; IC50 [2, 9]: 210 nM; EC50 [4, 10]: 180 nM; IC50 [3, 11]: 29 nM
8 | CCC(c1ccc(OC(F)(F)F)cc1)N1C[C@H](C)N(c2nc(=O)n(C)c3ccc(C#N)nc23)C[C@H]1CC (single isomer, unassigned) [Example 83] |  |  |  | IC50 [5]: 97 nM; IC50 [6]: 87 nM; IC50 [2, 9]: 160 nM; EC50 [4, 10]: 17 nM; IC50 [3, 11]: 15 nM
9 | CC[C@H]1CN(C(c2ccc(F)cc2)c2nc(C3CC3)nn2C)[C@H](CC)CN1c1nc(=O)n(C)c2ccc(C#N)nc12 (single isomer, unassigned) [Example 295] |  |  |  | IC50 [5]: 7230 nM; IC50 [6]: 100 nM; IC50 [2, 9]: 820 nM; EC50 [4, 10]: 580 nM; IC50 [3, 11]: 100 nM
10 | CC[C@@H]1CN(c2nc(=O)n(C)c3ccc(C#N)nc23)[C@@H](C)CN1C(c1ccc(OC(F)(F)F)cc1)c1cc(C2CC2)on1 (single isomer, unassigned) [Example 100] |  |  |  | IC50 [5]: 250 nM; IC50 [6]: 320 nM; IC50 [2, 9]: 110 nM; EC50 ([4]; Homo sapiens, whole blood, normalized to 3 μM reference compound as 100% activation, read-out: IFN-γ Whole Blood Normalized EC50): 44 nM; IC50 [3, 11]: 11 nM
11 | CCC(c1ccc(OC(F)(F)F)cc1)N1C[C@H](CC)N(c2nc(=O)n(C)c3ccc(C#N)nc23)C[C@H]1CC (single isomer, unassigned) [Example 36] |  |  |  | IC50 [5]: 16 nM; IC50 [6]: 250 nM; IC50 [2, 9]: 75 nM; EC50 [4, 10]: 82 nM; IC50 [3, 11]: 190 nM

More lines, main results first:

Row | EC50 [1] [µM] | IC50 [2, 7] [nM] | IC50 [3, 8] [nM] | Structure (SMILES) | also measured
12 | 7.13 | 81100 | 1960 | CC(c1ccc(C(F)(F)F)cc1)N1C[C@H](CO)N(c2nc(=O)n(C)c3ccc(C#N)nc23)C[C@H]1C (single isomer, unassigned) [Example 406] | 
13 | 0.28 | 79 | 75 | CCC(c1ccc(OCCC2CC2)cc1)N1C[C@H](C)N(c2nc(=O)n(C)c3ccc(C#N)nc23)C[C@H]1CC (stereo partly drawn) [Example 339, 4-((2S,5R)-4-(1-(4-(2-cyclopropylethoxy)phenyl)propyl)-5-ethyl-2-methylpiperazin-1-yl)-1-methyl-2-oxo-1,2-dihydropyrido[3,2-d]pyrimidine-6-carbonitrile] | 
14 | 20 | 4080 | 7410 | CCC(N1C[C@H](C)N(c2nc(=O)n(C)c3ccc(C#N)nc23)C[C@H]1C)C12CC(C(F)(F)F)(C1)C2 (single isomer, unassigned) [Example 449] | 
15 | 3.78 | 1560 | 2080 | CC[C@@H]1CN(c2nc(=O)n(C)c3ccc(C#N)nc23)[C@@H](C)CN1C(C)c1ccc(C(F)(F)F)c(C#N)c1 (single isomer, unassigned) [Example 357] | 
16 | 20 | 47 | 750 | CCOC[C@@H]1CN(c2nc(=O)n(C)c3ccc(C#N)nc23)[C@@H](C)CN1C(CC)c1ccc(C(F)(F)F)cc1 (stereo partly drawn) [Example 400, 4-((2S,5S)-5-(ethoxymethyl)-2-methyl-4-(1-(4-(trifluoromethyl)phenyl)propyl)piperazin-1-yl)-1-methyl-2-oxo-1,2-dihydropyrido[3,2-d]pyrimidine-6-carbonitrile] | 
17 | 7.93 | 1200 | 1090 | CCC(c1ccc(OCC2COC2)cc1)N1C[C@H](C)N(c2nc(=O)n(C)c3ccc(C#N)nc23)C[C@H]1CC (stereo partly drawn) [Example 342, 4-((2S,5R)-5-ethyl-2-methyl-4-(1-(4-(oxetan-3-ylmethoxy)phenyl)propyl)piperazin-1-yl)-1-methyl-2-oxo-1,2-dihydropyrido[3,2-d]pyrimidine-6-carbonitrile] | 
18 | 20 |  |  | CC[C@H]1CN(C(C)c2ccc(C(F)(F)F)cc2)[C@H](CC)CN1c1nc(=O)n(C)c2ccc(OCCOC)nc12 (stereo partly drawn) [Example 434, 4-((2S,5R)-2,5-diethyl-4-(1-(4-(trifluoromethyl)phenyl)ethyl)piperazin-1-yl)-6-(2-methoxyethoxy)-1-methylpyrido[3,2-d]pyrimidin-2(1H)-one] | 
19 | 20 |  | 490 | CCC[C@@H]1CN(c2nc(=O)n(C)c3ccc(C#N)nc23)[C@@H](C)CN1C(C)c1ccc(C(F)(F)F)cc1 (single isomer, unassigned) [Example 395] | 
20 | 6.69 | 41700 |  | CC[C@@H]1CN(c2nc(=O)n(C)c3ccc(C#N)nc23)[C@@H](C)CN1C(C)c1ccc(C(F)(F)F)c(CN2CCCCC2)c1 (stereo partly drawn) [Example 355, 4-((2S,5R)-5-ethyl-2-methyl-4-(1-(3-(piperidin-1-ylmethyl)-4-(trifluoromethyl)phenyl)ethyl)piperazin-1-yl)-1-methyl-2-oxo-1,2-dihydropyrido[3,2-d]pyrimidine-6-carbonitrile] | 
21 | 20 |  |  | C[C@@H]1CN(c2nc(=O)n(C)c3ccc(C#N)nc23)[C@@H](C)CN1C(c1ccc(F)cc1)C12CC(C(F)(F)F)(C1)C2 (stereo partly drawn) [Example 452, 4-((2S,5R)-4-((4-fluorophenyl)(3-(trifluoromethyl)bicyclo[1.1.1]pentan-1-yl)methyl)-2,5-dimethylpiperazin-1-yl)-1-methyl-2-oxo-1,2-dihydropyrido[3,2-d]pyrimidine-6-carbonitrile] | 
22 | 20 | 125000 |  | CCOc1ccc2c(n1)c(N1C[C@@H](CC)N(C(C)c3ccc(C(F)(F)F)cc3)C[C@@H]1CC)nc(=O)n2C (stereo partly drawn) [Example 430, 4-((2S,5R)-2,5-diethyl-4-(1-(4-(trifluoromethyl)phenyl)ethyl)piperazin-1-yl)-6-ethoxy-1-methylpyrido[3,2-d]pyrimidin-2(1H)-one] | EC50 ([4]; human whole blood, anti-CD3 plus anti-CD28 stimulation, 24 hours, read-out: IFN-γ Whole Blood EC50): 20000 nM
23 | 7.95 | 650 |  | CC[C@@H]1CN(c2nc(=O)n(C)c3ccc(C#N)nc23)[C@@H](C)CN1C(C)c1ccc(C(F)(F)F)c(CN2CCCCC2)c1 (stereo partly drawn) [Example 354, 4-((2S,5R)-5-ethyl-2-methyl-4-(1-(3-(piperidin-1-ylmethyl)-4-(trifluoromethyl)phenyl)ethyl)piperazin-1-yl)-1-methyl-2-oxo-1,2-dihydropyrido[3,2-d]pyrimidine-6-carbonitrile] | 
24 | 20 |  |  | C[C@@H]1CN(c2nc(=O)n(C)c3ccc(C#N)nc23)[C@@H](C)CN1C(c1ccc(F)cc1)C12CC(C(F)(F)F)(C1)C2 (stereo partly drawn) [Example 451, 4-((2S,5R)-4-((4-fluorophenyl)(3-(trifluoromethyl)bicyclo[1.1.1]pentan-1-yl)methyl)-2,5-dimethylpiperazin-1-yl)-1-methyl-2-oxo-1,2-dihydropyrido[3,2-d]pyrimidine-6-carbonitrile] | 
